Each structure is given as a SMILES string.

In one data set the target is PDE4B1 (S133D) (Homo sapiens, UniProt Q07343, S133D/S659A/S661A). The data set is described as follows: PDE4 enzyme inhibition assay, counter-screen. It is filed as biochemical. (Counterscreens check selectivity or assay interference.)
The nature of data set [1]: Radioligand lipophilicity. The note with it: n-octanol/sodium phosphate buffer, pH 7.4. In kind it is physicochemical.
Data set [2] can be described thus: Mouse iv cassette pharmacokinetics, brain uptake. In kind it is in vivo, CD1 mice. As to conditions: intravenous dosing; SUV = brain Cmax (ng/mL)/dose (mg/kg)/1000.
Data set [3] addresses serotonin 5-HT2B receptor (Homo sapiens, UniProt P41595). The data set is described as follows: NIMH Psychoactive Drug Screening Panel, hit. It is filed as binding.
Data set [4] relates to panel of GPCRs and other binding sites. As to the kind of experiment: NIMH Psychoactive Drug Screening Panel.
For data set [5], the system named is PDE4D. The data set is described as follows: PET imaging in monkey brain, baseline and preblock. In kind it is in vivo, rhesus monkeys (Macaca mulatta).
Data set [6] has as its target PDE4D (Homo sapiens, UniProt Q08499). As to the kind of experiment: PET imaging in human brain. In kind it is in vivo. As to conditions: po, read-out: occupancy of the target enzyme.
Another data set addresses Human PDE4D7* (S129D) (Homo sapiens, UniProt Q08499, S190D/S715A/S717A). The data set is described as follows: PDE4 enzyme inhibition assay.

Chain of PDE4B1 (S133D) (Q07343 whole entry S133D/S659A/S661A): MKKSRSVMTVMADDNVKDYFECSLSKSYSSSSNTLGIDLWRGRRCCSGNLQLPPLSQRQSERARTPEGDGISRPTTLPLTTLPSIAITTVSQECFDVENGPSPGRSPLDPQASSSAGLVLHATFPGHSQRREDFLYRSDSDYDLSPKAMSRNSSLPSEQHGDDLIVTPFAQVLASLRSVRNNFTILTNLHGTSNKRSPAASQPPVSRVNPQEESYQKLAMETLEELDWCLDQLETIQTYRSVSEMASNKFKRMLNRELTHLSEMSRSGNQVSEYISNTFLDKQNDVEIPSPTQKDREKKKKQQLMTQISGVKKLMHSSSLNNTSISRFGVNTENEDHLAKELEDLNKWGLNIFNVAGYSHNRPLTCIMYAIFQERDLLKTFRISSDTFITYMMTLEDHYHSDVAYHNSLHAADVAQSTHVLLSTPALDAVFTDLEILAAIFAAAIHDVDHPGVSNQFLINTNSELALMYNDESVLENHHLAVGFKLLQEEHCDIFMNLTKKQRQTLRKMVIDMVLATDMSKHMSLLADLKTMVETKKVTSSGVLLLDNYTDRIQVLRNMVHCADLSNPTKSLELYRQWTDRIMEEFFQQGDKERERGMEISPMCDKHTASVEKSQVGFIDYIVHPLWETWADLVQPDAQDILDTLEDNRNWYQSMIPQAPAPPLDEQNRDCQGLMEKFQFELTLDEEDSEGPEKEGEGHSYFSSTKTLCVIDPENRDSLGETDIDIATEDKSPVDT
Chain of serotonin 5-HT2B receptor (P41595 whole entry): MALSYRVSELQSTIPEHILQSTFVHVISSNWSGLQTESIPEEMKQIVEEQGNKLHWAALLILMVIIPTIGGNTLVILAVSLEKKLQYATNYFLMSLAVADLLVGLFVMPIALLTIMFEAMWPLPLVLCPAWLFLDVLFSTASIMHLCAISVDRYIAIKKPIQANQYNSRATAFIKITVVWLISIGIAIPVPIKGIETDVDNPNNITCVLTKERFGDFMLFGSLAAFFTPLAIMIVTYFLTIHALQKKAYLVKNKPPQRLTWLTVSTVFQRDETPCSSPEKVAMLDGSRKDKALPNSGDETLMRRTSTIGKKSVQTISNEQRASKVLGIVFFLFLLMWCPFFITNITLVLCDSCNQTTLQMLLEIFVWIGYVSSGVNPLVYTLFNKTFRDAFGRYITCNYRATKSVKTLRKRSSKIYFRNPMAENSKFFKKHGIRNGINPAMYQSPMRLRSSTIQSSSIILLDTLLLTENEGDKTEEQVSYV
Chain of Human PDE4D7* (S129D) (Q08499 1-748 isoform Q08499-11 S129D/S654A/S656A): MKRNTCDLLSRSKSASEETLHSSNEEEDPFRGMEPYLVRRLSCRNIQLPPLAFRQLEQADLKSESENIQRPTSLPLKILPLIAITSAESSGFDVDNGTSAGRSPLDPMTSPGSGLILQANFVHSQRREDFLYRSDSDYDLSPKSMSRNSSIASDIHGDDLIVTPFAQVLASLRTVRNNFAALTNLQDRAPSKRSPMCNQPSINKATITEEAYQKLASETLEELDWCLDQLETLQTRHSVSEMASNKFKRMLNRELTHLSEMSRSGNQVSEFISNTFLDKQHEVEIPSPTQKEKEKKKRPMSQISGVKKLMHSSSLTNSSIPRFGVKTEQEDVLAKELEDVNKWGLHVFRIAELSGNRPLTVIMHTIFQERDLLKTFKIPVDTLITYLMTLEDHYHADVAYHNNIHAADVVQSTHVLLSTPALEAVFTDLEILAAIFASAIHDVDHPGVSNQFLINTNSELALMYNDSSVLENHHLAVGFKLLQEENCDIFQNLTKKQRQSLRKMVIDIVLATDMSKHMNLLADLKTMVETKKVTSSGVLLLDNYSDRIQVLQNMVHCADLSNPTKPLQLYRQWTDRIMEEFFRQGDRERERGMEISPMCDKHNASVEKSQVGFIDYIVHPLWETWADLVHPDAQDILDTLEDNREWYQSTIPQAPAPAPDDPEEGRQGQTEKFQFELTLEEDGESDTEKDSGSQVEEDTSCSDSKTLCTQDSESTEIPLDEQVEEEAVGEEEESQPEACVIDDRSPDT
Chain of PDE4D (Homo sapiens, UniProt Q08499) (Q08499 307-809 limits assumed): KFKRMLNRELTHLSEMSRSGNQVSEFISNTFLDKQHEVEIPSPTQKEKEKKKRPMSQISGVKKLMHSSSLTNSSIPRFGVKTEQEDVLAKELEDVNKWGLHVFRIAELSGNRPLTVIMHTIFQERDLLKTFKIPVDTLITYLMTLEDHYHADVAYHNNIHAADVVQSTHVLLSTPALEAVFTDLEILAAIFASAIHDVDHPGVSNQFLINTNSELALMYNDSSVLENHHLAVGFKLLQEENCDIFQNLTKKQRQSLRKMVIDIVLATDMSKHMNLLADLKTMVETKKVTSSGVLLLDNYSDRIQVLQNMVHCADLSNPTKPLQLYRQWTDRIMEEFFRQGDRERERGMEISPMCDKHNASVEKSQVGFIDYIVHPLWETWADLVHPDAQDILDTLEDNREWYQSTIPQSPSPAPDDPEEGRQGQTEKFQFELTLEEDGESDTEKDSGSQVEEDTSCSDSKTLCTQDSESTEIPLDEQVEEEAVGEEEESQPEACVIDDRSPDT

The IC50 is the midpoint of a concentration-inhibition curve. As a reminder, the logD is lipophilicity at a set pH, counting ionised and neutral species. `COc1ccc(Cc2cn[nH]c2)nc1-c1cccc([N+](=O)[O-])c1` [Compound 6]: the IC50 was 1120 nM against PDE4B1 (S133D) and 766 nM in data set [3]. This compound showed a logD in data set [1] of 2.89. In addition, the “SUV, brain uptake in mice” value in data set [2] was 1.76 SUV. Also, in data set [4], the off-target binding activity result was “did not reveal significant off-target binding activity”.
Take `COc1ccc(C2CNC(=O)C2)cc1OC1CCCC1` (centres unmarked) [rolipram]: the “PDE4D target occupancy (Lassen plot)” value came out at 63% with PDE4D [5] (radioligand [11C]T1650, blocking dose 0.2 mg/kg i.v.); 93% in the data set on PDE4D [5] (radioligand [11C]T1650, blocking dose 1.0 mg/kg i.v.); 79% in the data set with PDE4D [5] (radioligand [11C]T1660, rolipram 1.0 mg/kg i.v.).
Consider `O=C(O)Cc1ccc(Cc2cc(-c3cccc(Cl)c3)nc(C(F)(F)F)c2)cc1` [BPN14770], for which the “PDE4D target occupancy (Lassen plot)” value in the data set on PDE4D [5] (radioligand [11C]T1650, blocking dose 3 mg/kg i.v.) is reported as 63%. The receptor occupancy at 50 mg on PDE4D [6] was ~40%.
Take `Cn1cc(Cc2ccc(OC(F)F)c(-c3cccc(Cl)c3)n2)cn1` [Compound 4, 2-(3-chlorophenyl)-3-(difluoromethoxy)-6-[(1-methyl-1H-pyrazol-4-yl)methyl]pyridine]: the IC50 at PDE4B1 (S133D) is 858 nM; against Human PDE4D7* (S129D), 0.5 nM. Besides, the logD in data set [1] was found to be 3.07. In addition, the “SUV, brain uptake in mice” value in data set [2] is given as 1.44 SUV.
In turn, `COc1ccc(Cc2ccncc2)nc1-c1cccc([N+](=O)[O-])c1` [Compound 5, 3-methoxy-2-(3-nitrophenyl)-6-[(pyridin-4-yl)methyl]pyridine] gave an IC50 against PDE4B1 (S133D) of 280 nM. The same compound registered a logD in data set [1] of 3.38. Further, the “SUV, brain uptake in mice” value in data set [2] is recorded as 1.76 SUV.
At PDE4B1 (S133D), `COc1ccc(Cc2ccncc2)nc1-c1cccc(Cl)c1` [Compound 3, 2-(3-chlorophenyl)-3-methoxy-6-[(pyridin-4-yl)methyl]pyridine] had an IC50 of 720 nM. Moreover, the logD in data set [1] was 3.45. In data set [2], the “SUV, brain uptake in mice” value worked out at 0.94 SUV.

These data come from publication PMC7444660 (ACS chemical neuroscience, 2020).
